Data from ChEMBL document CHEMBL2375331, “Daphnane-type diterpenes with inhibitory activities against human cancer cell lines from Daphne genkwa” (Bioorg Med Chem Lett, 2013).

Assays:
Assay type in all cases: functional, cell-based
[1] = system: K562; test: Cytotoxicity against human K562 cells after 48 hrs by MTT assay; details: K562, 48 h
[2] = system: U-937; test: Cytotoxicity against human U937 cells after 48 hrs by MTT assay; details: U-937, 48 h
[3] = system: HL-60; test: Cytotoxicity against human HL60 cells after 48 hrs by MTT assay; details: HL-60, 48 h
[4] = Cytotoxicity against human A375-S2 cells after 48 hrs by MTT assay; details: A375-S2, 48 h
[5] = system: HT-1080; test: Cytotoxicity against human HT1080 cells after 48 hrs by MTT assay; details: HT-1080, 48 h
[6] = system: HCT-116; test: Cytotoxicity against human HCT116 cells after 48 hrs by MTT assay; details: HCT-116, 48 h
[7] = system: A549; test: Cytotoxicity against human A549 cells after 48 hrs by MTT assay; details: A549, 48 h
[8] = system: HepG2; test: Cytotoxicity against human HepG2 cells after 48 hrs by MTT assay; details: HepG2, 48 h
[9] = system: HeLa; test: Cytotoxicity against human HeLa cells after 48 hrs by MTT assay
[10] = system: MCF7; test: Cytotoxicity against human MCF7 cells after 48 hrs by MTT assay; details: MCF7, 48 h

## C=C(C)[C@@]12OC3(/C=C/C=C/CCCCC)O[C@@H]1[C@@H]1[C@@H]4O[C@]4(CO)[C@@H](O)[C@]4(O)C(=O)C(C)=C[C@H]4[C@@]1(O3)[C@H](C)[C@H]2OC(=O)CC
[1]
  IC50: 29.4 µM
[2]
  IC50: 27.4 µM
[3]
  IC50: 22.7 µM
[4]
  IC50: > 50 µM
[5]
  IC50: 28.8 µM
[6]
  IC50: 46.8 µM
[7]
  IC50: 18.8 µM
[8]
  IC50: 13.5 µM
[9]
  IC50: 25.5 µM
[10]
  IC50: > 50 µM

## C=C(C)[C@@]12OC3(c4ccccc4)O[C@@H]1[C@@H]1[C@H](O)[C@](O)(CO)[C@@H](O)[C@]4(O)C(=O)C(C)=C[C@H]4[C@@]1(O3)[C@H](C)[C@H]2OC(=O)c1ccccc1 [YUANHUAOATE B]
[1]
  IC50: 21.3 µM
[2]
  IC50: 14.4 µM
[3]
  IC50: 27 µM
[4]
  IC50: 23.3 µM
[5]
  IC50: 0.59 µM
[6]
  IC50: 26.5 µM
[7]
  IC50: 15.9 µM
[8]
  IC50: 25.1 µM
[9]
  IC50: 21 µM
[10]
  IC50: 0.37 µM

## C=C(C)[C@@]12O[C@@]3(c4ccccc4)O[C@@H]1[C@@H]1[C@@H]4O[C@]4(CO)[C@@H](O)[C@]4(O)C(=O)C(C)=C[C@H]4[C@@]1(O3)[C@H](C)[C@H]2OC(C)=O
[1]
  IC50: > 50 µM
[2]
  IC50: > 50 µM
[3]
  IC50: > 50 µM
[4]
  IC50: > 50 µM
[5]
  IC50: < 0.1 µM
[6]
  IC50: 37.5 µM
[7]
  IC50: > 50 µM
[8]
  IC50: > 50 µM
[9]
  IC50: 42.4 µM
[10]
  IC50: > 50 µM

## C=C(C)[C@]12C[C@@H](C)[C@@]34O[C@](CCCCCCCCC)(O[C@@H]1[C@@H]3[C@@H]1O[C@]1(CO)[C@@H](O)[C@]1(O)C(=O)C(C)=C[C@H]14)O2 [SIMPLEXIN]
[1]
  IC50: > 50 µM
[2]
  IC50: > 50 µM
[3]
  IC50: > 50 µM
[4]
  IC50: 10.7 µM
[5]
  IC50: < 0.1 µM
[6]
  IC50: > 50 µM
[7]
  IC50: 27 µM
[8]
  IC50: 38.8 µM
[9]
  IC50: 21.7 µM
[10]
  IC50: 25.4 µM

## O=c1[nH]cc(F)c(=O)[nH]1 [FLUOROURACIL]
[1]
  IC50: 23.6 µM
[2]
  IC50: 23.9 µM
[3]
  IC50: 10.1 µM
[4]
  IC50: 6.67 µM
[5]
  IC50: 35.6 µM
[6]
  IC50: 27.8 µM
[7]
  IC50: 44.1 µM
[8]
  IC50: 40.3 µM
[9]
  IC50: 7.34 µM
[10]
  IC50: 11.5 µM

## C=C(C)[C@@]12O[C@@]3(c4ccccc4)O[C@@H]1[C@@H]1[C@@H]4O[C@]4(CO)[C@@H](O)[C@]4(O)C(=O)C(C)=C[C@H]4[C@@]1(O3)[C@H](C)[C@H]2OC(=O)c1ccccc1
[1]
  IC50: 22.5 µM
[2]
  IC50: 13.2 µM
[3]
  IC50: 24.4 µM
[4]
  IC50: 16.9 µM
[5]
  IC50: < 0.1 µM
[6]
  IC50: 29.3 µM
[7]
  IC50: 19.1 µM
[8]
  IC50: 24.1 µM
[9]
  IC50: 19.1 µM
[10]
  IC50: 2.36 µM

## C=C(C)[C@@]12O[C@@]3(c4ccccc4)O[C@@H]1[C@@H]1[C@@H]4O[C@]4(CO)[C@@H](O)[C@]4(O)C(=O)[C@@H](C)C[C@H]4[C@@]1(O3)[C@H](C)[C@H]2OC(=O)c1ccccc1
[1]
  IC50: 24.6 µM
[2]
  IC50: 12.3 µM
[3]
  IC50: 26 µM
[4]
  IC50: 9.31 µM
[5]
  IC50: 14.3 µM
[6]
  IC50: 24.9 µM
[7]
  IC50: 12.5 µM
[8]
  IC50: 24.1 µM
[9]
  IC50: 20.3 µM
[10]
  IC50: 0.37 µM

## C=C(C)[C@]1(O)C[C@@H](C)[C@@]2(O)[C@H]([C@H]1OC(=O)c1ccccc1)[C@H](O)[C@](O)(COC(=O)/C=C/C=C/CCCCC)[C@@H](O)[C@@]1(O)[C@H]2C[C@H](C)[C@@H]1O
[1]
  IC50: 24.5 µM
[2]
  IC50: 15.6 µM
[3]
  IC50: 10.1 µM
[4]
  IC50: 23.7 µM
[5]
  IC50: 22.9 µM
[6]
  IC50: 35.8 µM
[7]
  IC50: 20.9 µM
[8]
  IC50: 17.9 µM
[9]
  IC50: 21.1 µM
[10]
  IC50: > 50 µM

## C=C(C)[C@]12C[C@@H](C)[C@@]34OC(c5ccccc5)(O[C@@H]1[C@@H]3[C@@H]1O[C@]1(CO)[C@@H](O)[C@@]1(O)[C@H]4C[C@H](C)[C@@H]1O)O2 [ORTHOBENZOATE]
[1]
  IC50: 42.3 µM
[2]
  IC50: > 50 µM
[3]
  IC50: > 50 µM
[4]
  IC50: 47.2 µM
[5]
  IC50: 24.5 µM
[6]
  IC50: 49.9 µM
[7]
  IC50: > 50 µM
[8]
  IC50: 48.9 µM
[9]
  IC50: 31.7 µM
[10]
  IC50: 12.4 µM

## C=C(C)[C@@]12OC3(c4ccccc4)O[C@@H]1[C@@H]1[C@H](O)[C@](O)(CO)[C@@H](O)[C@]4(O)C(=O)[C@@H](C)C=C4[C@@]1(O3)[C@H](C)[C@H]2OC(=O)c1ccccc1
[1]
  IC50: 46.9 µM
[2]
  IC50: 29.9 µM
[3]
  IC50: 27.7 µM
[4]
  IC50: 14.3 µM
[5]
  IC50: 16.1 µM
[6]
  IC50: > 50 µM
[7]
  IC50: 26.9 µM
[8]
  IC50: 27.9 µM
[9]
  IC50: 24.8 µM
[10]
  IC50: 33.7 µM
